Key:
[1] = tested on: acetic acid-induced writhes; assay: Acetic acid-induced writhing, oral administration; type: in vivo, Albino male CD-1 mice; conditions: 100 mg/kg orally 1 hour prior to i.p. acetic acid
Procedure: In this example, galvanic particulates produced by the process of Example 1 were evaluated for analgesic activity. Aspirin, a non-steroidal analgesic agent, which is known to show efficacy in this model, was included as a reference compound. Albino male CD-1 mice, weighing 24±2 g were used in the study. Galvanic particulates or aspirin were prepared in deionized water (DI Water) and were administered orally at a concentration of 100 mg/kg to mice 1 hour prior to injection of acetic acid. A […] of a 0.5% acetic acid solution was injected intraperitoneally, and the number of acetic acid-induced writhes were counted by an observer blinded to the treatment groups. A 50% decrease in the number of writhes indicated analgesic activity.

[2] = tested on: oxazolone-induced skin inflammation; assay: Murine model of contact hypersensitivity (oxazolone ear inflammation), topical; type: in vivo, Albino male CD-1 mice; conditions: 1 mg/ml, 20 μl to left ear 1 hour after oxazolone challenge; ear biopsy weight at 24 hours

| Structure (SMILES) | Analgesic Effectiveness (Percent Reduction Writhes) [1] [%] | Total Number of Writhes (Mean ± Std Dev) ([1]; vehicle 11.4 ± 6.1) | Percent Inhibition of Skin Inflammation [2] |
| --- | --- | --- | --- |
| CC(=O)Oc1ccccc1C(=O)O [Aspirin] | 56 | 5.0 ± 3.6 | – |
| C[C@]12CCC(=O)C=C1CC[C@@H]1[C@@H]2[C@@H](O)C[C@@]2(C)[C@H]1CC[C@]2(O)C(=O)CO [Hydrocortisone] | – | – | 70.3% ± 6.6% |

From patent US20120148633A1, “BINARY AND TERTIARY GALVANIC PARTICULATES AND METHODS OF MANUFACTURING AND USE THEREOF” (priority 2009, published 2012)
